Here are results for twelve molecules from US11685716B2, “Plant growth inhibiting agent, and plant growth inhibiting method using same” (NATIONAL UNIVERSITY CORPORATION KUMAMOTO UNIVERSITY, priority 2017, dated 2023).

The subject of assay [1] is thale cress. Briefly: Activities on plants: growth of thale cress on agar medium (Evaluation 1, 6). Format: in vivo, thale cress (Col-0, wild-type strain). The settings on record: for plant growth inhibition effect (activity on plant growth) / twisting of root epidermal cells / abnormality in direction of root growth: thale cress Col-0, agar medium, 7 days; for twisting of root epidermal cells / abnormality in direction of root growth: scanned images. The protocol: The test compound (compound (6a)) and DMSO for a control experiment, were added at this stage and blended. Fifty ml each of the medium was dispensed in sterile No. 2 square petri dishes (Eiken Chemical Co., Ltd.) to prepare agar medium. As a plant material, Col-0, which is a wild-type strain of […] used. Seeds, after their surfaces were sterilized, were planted on the agar medium, and vernalized at 4° C. for 16 hours. Growth of the plant was carried out in a growth chamber (SANYO MLR-351) under the conditions of an illuminance of 3 at 23° C. with constant light. The agar medium was allowed to stand upright in the chamber to grow the plant for 7 days. Lids of the petri dishes used for the test were opened, the test results were recorded with a scanner, and with the scanned images, […]

The test system of assay [2] is HeLa cell. Briefly: Cell proliferation inhibiting activity on human cultured cancer cells (Evaluation 2). The assay is classed as cell-based. As to conditions: 32 hours. The method, then: Every 8 hours after the culture was started, living cell counts were measured with a cell counting kit (DOJINDO LABORATORIES). In addition, staurosporine was used as a control of the compound which inhibits the cell proliferation.

Assay [3] relates to Schizosaccharomyces pombe (wild-type strain 972). Briefly: Growth inhibiting activity on Schizosaccharomyces pombe (Evaluation 3). Format: cell-based. As to conditions: final concentration 100 μM, up to 30 hours. The protocol: The compound (6a) or the compound (7) (final concentration 100 μM) or 50% ethanol (final concentration 0.5%) was added to YE medium in which Schizosaccharomyces pombe (wild-type strain 972) was inoculated to carry out shaking culture at 30° C. Six, 12, 18, 24, and 30 hours after the culture was started, turbidity (OD600) of the culture medium was measured with a spectrophotometer to analyze the affect of the compound (6a) or the compound (7), or 50% ethanol on the growth of the Schizosaccharomyces pombe cells.

Assay [4] deals with Saccharomyces cerevisiae (BY4741 strain). Briefly: Growth inhibiting activity on Saccharomyces cerevisiae (Evaluation 4). Format: cell-based. The settings on record: final concentration 10 μM or 100 μM, up to 24 hours. The method, then:
The compound (6a) or the compound (7) (final concentration 10 μM or 100 μM), or 50% ethanol (final concentration 0.05% or 0.5%) was added to YPD medium in which Saccharomyces cerevisiae (BY4741 strain) was inoculated to carry out shaking culture at 30° C. Four, 8, 16, and 24 hours after the culture was started, turbidity (OD600) of the culture medium was measured with a spectrophotometer to analyze the affect of the compound (6a) or the compound (7), or 50% ethanol on the growth of the […] cells.

In assay [5] the test system is E. coli (DH5a strain). Briefly: E. coli growth inhibiting activity (Evaluation 5). Format: cell-based. The method, then: The compound (6a) or the compound (7) (final concentration 10 μM or 100 μM), 50% ethanol (final concentration 0.05% or 0.5%), or ampicillin (final concentration 50 μg/ml) was added to LB medium in which E. coli (DH5a strain) was added to carry out shaking culture at 37° C. One, 2, 4, and 6 hours after the culture was started, turbidity (OD600) of the culture medium was measured with a spectrophotometer to analyze the affect of the compound (6a) or the compound (7), 50% ethanol, ampicillin on the growth of E. coli cells.
In addition, ampicillin was used as a control of the compound which inhibits the growth.

The test system of assay [6] is thale cress. Briefly: Plant growth inhibition index, thale cress on agar medium in test tube (Evaluation 8, 9). Format: in vivo, thale cress (Col-0, wild-type strain). The settings on record: Concentration 200 μM, 8 days (Evaluation 9, Table 2).
For assay [7], the system named is Japanese bristlegrass. Briefly: Spray treatment to stems and leaves, killing weed index (Evaluation 10). The settings on record: 2000 g active ingredient per hectare, two weeks later. Format: in vivo. In outline:
(§1)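 Post-emergence foliar spray on plants 2–9 cm tall at 2000 g active ingredient/ha, in 1000 L/ha or 250 L/ha (small-amount test) spray volume. Above-ground weight versus untreated measured after two weeks; killing rate converted to 0–10 index in 10% steps, 10 meaning 100%.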

For assay [8], the system named is purple amaranth. The assay is described as above. Format: in vivo. As to conditions: 2000 g active ingredient per hectare, two weeks later. In outline: as §1
For assay [9], the system named is southern crabgrass. The description is as above. Format: in vivo. As to conditions: 2000 g active ingredient per hectare, two weeks later. The procedure, abridged: as §1
The subject of assay [10] is velvet leaf. The description is as above. Format: in vivo. The settings on record: 2000 g active ingredient per hectare, two weeks later. In outline:
as §1

Assay [11] has as its system Japanese millet. Briefly: Seed treatment, plant growth inhibition index (Evaluation 11). The assay is classed as in vivo. Also noted: key: 0: No effect; 1: Growth of the root part was inhibited 50% or less compared with non-treated area.; 2: Growth of the root part was inhibited 50% or more compared with non-treated area.; 3: Growth of the root part was substantially inhibited.; 4: Germination was inhibited. The settings on record: 200 μM, 6 days (9a, 9b: 7 days).

Assay [12] relates to Ragweed. Described as above. The assay is classed as in vivo. More on the design: key: 0: No effect; 1: Growth of the root part was inhibited 50% or less compared with non-treated area.; 2: Growth of the root part was inhibited 50% or more compared with non-treated area.; 3: Growth of the root part was substantially inhibited.; 4: Germination was inhibited. The settings on record: 200 μM, 6 days (9a, 9b: 7 days).

The test system of assay [13] is morning glory. The description is as above. More on the design: key: 0: No effect; 1: Growth of the root part was inhibited 50% or less compared with non-treated area.; 2: Growth of the root part was inhibited 50% or more compared with non-treated area.; 3: Growth of the root part was substantially inhibited.; 4: Germination was inhibited. The settings on record: 200 μM, 6 days (9a, 9b: 7 days). Format: in vivo.

The subject of assay [14] is velvet leaf. The description is as above. Format: in vivo. More on the design: key: 0: No effect; 1: Growth of the root part was inhibited 50% or less compared with non-treated area.; 2: Growth of the root part was inhibited 50% or more compared with non-treated area.; 3: Growth of the root part was substantially inhibited.; 4: Germination was inhibited. As to conditions: 200 μM, 6 days (9a, 9b: 7 days).

Where [15] appears, read: thale cress Col-0, concentration of 1000 μM.
Setting [16] is: sprayed liquid amount 1000 L/ha.

Regarding `COn1cccc1C(=O)O` [Compound 6a, 1-Methoxy-1H-pyrrole-2-carboxylic acid], in assay [1], the “plant growth inhibition effect (activity on plant growth)” value (“plant growth inhibition effect” for short) is on record as “plant growth inhibition was significantly observed”; the “twisting of root epidermal cells / abnormality in direction of root growth” value was “epidermal cells of the roots were twisted leftward and abnormality in a direction of root growth was observed”. In addition, in assay [1] (thale cress Col-0, compound added, FIG. 2), the “root epidermal cells, observation by stereomicroscope” value is listed as “epidermal cells of the roots were observed to have been twisted leftward”. The “effect on growth rate of HeLa cells (living cell counts)” value in [2] (final concentration 200 μM) is listed as “no affect at all”. The “growth of Schizosaccharomyces pombe (OD600)” value in [3] is given as “neither the compound (6a) nor the compound (7) inhibits the growth”. Moreover, the “growth of Saccharomyces cerevisiae (OD600)” value in assay [4] was “neither the compound (6a) nor the compound (7) inhibits the growth”. For the same molecule, the “E. coli growth (OD600)” value in assay [5] (final concentration 10 μM or 100 μM, up to 6 hours) was “neither the compound (6a) nor the compound (7) inhibits the E. coli growth”.
In the case of `CCOn1cccc1C(=O)O` [Compound 6b, 1-Ethoxy-1H-pyrrole-2-carboxylic acid], the “twisting of root epidermal cells / abnormality in direction of root growth” value in [1] is “epidermal cells of the roots were twisted leftward and abnormality in a direction of the root growth was observed”.
On to `O=C(O)c1cccn1O` [Compound 6c, 1-Hydroxy-1H-pyrrole-2-carboxylic acid], for which the “plant growth inhibition effect” value in assay [1] was “no activity was observed”.
As to `CCCOn1cccc1C(=O)O` [Compound 6d, 1-Propoxy-1H-pyrrole-2-carboxylic acid], in [1] (setting [15]), the germination entry is “No germinations were observed”.
The same measure, in the same setting: under `CC(C)On1cccc1C(=O)O` [Compound 6e, 1-Isopropoxy-1H-pyrrole-2-carboxylic acid] stands “No germinations were observed”.
In the case of `CCCCOn1cccc1C(=O)O` [Compound 6f, 1-Butoxy-1H-pyrrole-2-carboxylic acid], the germination result was “substantially no germination was observed” in [1] (thale cress Col-0, concentration of 500 μM) and “no germination was observed” in assay [1] (setting [15]).
As for `O=C(O)c1cccn1OCc1ccccc1` [Compound 6g, 1-(Benzyloxy)-1H-pyrrole-2-carboxylic acid], in assay [1], the “plant growth inhibition effect” value is reported as “a plant growth inhibiting effect was observed even more than when each of the compounds (6d) to (6f)”.
For the molecule `CCCCCCCCCOn1cccc1C(=O)NCc1ccccc1` [Compound 9e], in assay [6], the Index was 2 (Growth of the root part was inhibited 50% or more compared with non-treated area.). Also, the “killing weed index, Japanese bristlegrass” value in assay [7] (sprayed liquid amount 250 L/ha) and in [7] (setting [16]) was 2 (“2” when a killing weed rate is 29% to 20%) in each case. Also, the “killing weed index, Purple amaranth” value in assay [8] (sprayed liquid amount 250 L/ha) and in [8] (setting [16]) was 0 (“0” when a killing weed rate is 9% to 0%) each time. The “killing weed index, Southern crabgrass” value in assay [9] (sprayed liquid amount 250 L/ha) and in assay [9] (setting [16]) was 2 (“2” when a killing weed rate is 29% to 20%) in each case. Further, the “killing weed index, Velvet leaf” value in assay [10] (sprayed liquid amount 250 L/ha) was 2 (“2” when a killing weed rate is 29% to 20%); in assay [10] (setting [16]), 0 (“0” when a killing weed rate is 9% to 0%). Besides, the “plant growth inhibition index, Japanese millet” value in [11] is 3 (Growth of the stem and leave parts was inhibited 30% or more compared with non-treated area, or growth of the only root part was inhibited 60% or more compared with non-treated area.). Besides, the “plant growth inhibition index, Ragweed” value in assay [12] is recorded as 0. Also, the “plant growth inhibition index, Morning glory” value in assay [13] is listed as 0. Moreover, the “plant growth inhibition index, Velvet leaf” value in [14] was 0.
For the molecule `CCCCCCCCCOn1cccc1C(=O)NCC(F)(F)F` [Compound 9f], in assay [6], the Index was 2 (Growth of the root part was inhibited 50% or more compared with non-treated area.). Further, the “killing weed index, Japanese bristlegrass” value in [7] (sprayed liquid amount 250 L/ha) is on record as 2 (“2” when a killing weed rate is 29% to 20%); in [7] (setting [16]), 1 (“1” when a killing weed rate is 19% to 10%). The “killing weed index, Purple amaranth” value in [8] (sprayed liquid amount 250 L/ha) and in assay [8] (setting [16]) was 0 (“0” when a killing weed rate is 9% to 0%) in each case. The “killing weed index, Southern crabgrass” value was 2 (“2” when a killing weed rate is 29% to 20%) in assay [9] (sprayed liquid amount 250 L/ha) and 3 (“3” when a killing weed rate is 39% to 30%) in assay [9] (setting [16]). In addition, the “killing weed index, Velvet leaf” value in assay [10] (sprayed liquid amount 250 L/ha) and in assay [10] (setting [16]) was 0 (“0” when a killing weed rate is 9% to 0%) throughout. The “plant growth inhibition index, Japanese millet” value in assay [11] is 3 (Growth of the stem and leave parts was inhibited 30% or more compared with non-treated area, or growth of the only root part was inhibited 60% or more compared with non-treated area.). Also, in [12], the “plant growth inhibition index, Ragweed” value was 5 (Growth of the stem and leave parts was inhibited 50% or more compared with non-treated area, or growth of the only root part was inhibited 100% or more compared with non-treated area.). Moreover, the “plant growth inhibition index, Morning glory” value in [13] was 3 (Growth of the stem and leave parts was inhibited 30% or more compared with non-treated area, or growth of the only root part was inhibited 60% or more compared with non-treated area.). Besides, in [14], the “plant growth inhibition index, Velvet leaf” value is given as 0.
As for `C#CC(C)(C)NC(=O)c1cc(Cl)cc(Cl)c1` [Propyzamide, reference compound], in assay [1], the “twisting of root epidermal cells / abnormality in direction of root growth” value was “abnormality in a direction of the root growth was also observed”.
On to `CC1(C)S[C@@H]2[C@H](NC(=O)[C@H](N)c3ccccc3)C(=O)N2[C@H]1C(=O)O` [ampicillin, reference compound], for which the “E. coli growth (OD600)” value in [5] (final concentration 50 μg/ml, control) was “growth inhibition was observed”.
Consider `CN[C@@H]1C[C@H]2O[C@@](C)([C@@H]1OC)n1c3ccccc3c3c4c(c5c6ccccc6n2c5c31)C(=O)NC4` [staurosporine, reference compound], for which, in [2] (final concentration 1 μM, control), the “effect on HeLa cells (living cell counts)” value is given as “induced the apoptosis”.
